pIC50, pKi: −log10 of the molar value. Where a SMILES comes first, the peptide text is derived from it. Where no end group is shown, it is not given here.
How the values were obtained:
[1] = target: Clostridium botulinum neurotoxin serotype A truncated light chain (residues 1 to 424), Balc424 (Clostridium botulinum, UniProt P0DPI0); experiment: biochemical; details: 37°C, 30 min
[2] = target: BoNT/A; details: read-out: Kι; cited from earlier work

Chain of Clostridium botulinum neurotoxin serotype A truncated light chain (residues 1 to 424), Balc424 (P0DPI0 1-424 limits assumed): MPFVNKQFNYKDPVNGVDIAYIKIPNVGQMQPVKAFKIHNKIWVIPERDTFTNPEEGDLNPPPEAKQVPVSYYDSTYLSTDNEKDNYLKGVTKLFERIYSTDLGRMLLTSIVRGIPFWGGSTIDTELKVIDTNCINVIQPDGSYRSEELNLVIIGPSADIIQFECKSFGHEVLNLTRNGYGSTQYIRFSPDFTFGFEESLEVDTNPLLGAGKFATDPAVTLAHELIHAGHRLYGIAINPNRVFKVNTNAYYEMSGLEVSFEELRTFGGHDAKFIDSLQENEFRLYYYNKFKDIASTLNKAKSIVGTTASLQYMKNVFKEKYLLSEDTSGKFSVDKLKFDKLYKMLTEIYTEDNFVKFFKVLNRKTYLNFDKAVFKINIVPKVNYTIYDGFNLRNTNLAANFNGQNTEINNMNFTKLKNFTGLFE

Compound | pIC50 [1] | pKi [2]
CSCC[C@H](NC(=O)[C@H](CCCCN)NC(=O)[C@@H](NC(=O)[C@H](C)NC(=O)[C@H](CCCNC(=N)N)NC(=O)[C@@H](N)CCC(N)=O)[C@@H](C)O)C(N)=O [QRATKM] (H-QRATKM-NH2) | 3.88 | 
Ac-CRATKML |  | 5.72

— PMC2533696 (PLoS Pathogens, 2008)
